Source: patent US6214374A, “Compositions, methods and devices for the transdermal delivery of drugs” (priority 1996, dated 2001)
Like-named read-outs stand apart in the source and are kept apart here.

What was measured:
[1] = Transdermal penetration of progesterone: oleic acid, myristic acid and butylurea enhancers; assay type: in vitro ADME, human
Source text: Excised full-thickness human skin was obtained from elective surgery, (e.g., breast reductions) or occasionally, from amputated legs. The tissue was stored in plastic containers at refrigerator temperature until use, at which time the subcutaneous fat and connective tissue were carefully trimmed off. Skin specimen thickness was in the range 1.5-2.0 mm, with characteristic histological features preserved.
Tritium-labeled progesterone was obtained from NEN-DuPont (Wilmington, Del.), with the label at ring positions 1, 2, 6, and 7. It was incorporated in the test compositions in the range 100 to 500 DPM (Disintegration Per Minute) per microgram of progesterone. The labeled progesterone was incorporated at the pre-polymerization stage, i.e., just as water is added to form the hydrogel polymer. Aliquots of the gelling mixtures were added to small amounts of tritiated progesterone in scintillation vials (after the solvent had been evaporated), and stirred briskly with a small spatula. The vials were then tightly capped and stored at room temperature. […]
Rates of transdermal penetration of progesterone were determined for three samples: A-1, A-2, and A-3. […]
Some of the data from these determinations are plotted in FIG. 16, to illustrate how the rates were determined. […]

[2] = Progesterone penetration through a dialysis membrane; assay type: in vitro ADME
Experimental: Tritium-labeled progesterone was obtained from NEN-DuPont (Wilmington, Del.), with the label at ring positions 1, 2, 6, and 7. It was incorporated in the test compositions in the range 100 to 500 DPM (Disintegration Per Minute) per microgram of progesterone. The labeled progesterone was incorporated at the pre-polymerization stage, i.e., just as water is added to form the hydrogel polymer. Aliquots of the gelling mixtures were added to small amounts of tritiated progesterone in scintillation vials (after the solvent had been evaporated), and stirred briskly with a small spatula. The vials were then tightly capped and stored at room temperature. Milligram portions of this mixture were then taken from widely-spaced sites from within the vials, rapidly weighed, and dispersed in scintillation cocktail for determination of specific activities.
Transdermal penetration was performed in a single-chamber, solvent-replacement Diffusion Cell, held vertically and inverted (FIG. 13). Half-inch diameter discs of skin to which nylon washers had been cemented with cyanoacrylate were used. The available diffusional area of each skin disc enclosed by the nylon washer was 0.495 cm^2. […]
Thus, penetration of progesterone through a dialysis membrane, which was assumed to be more permeable than the skin, was measured to see how much progesterone could accumulate in the receptor of the diffusion cells. […]

[3] = assay type: in vitro ADME, human
Experimental: Transdermal penetration was performed in a single-chamber, solvent-replacement Diffusion Cell, held vertically and inverted (FIG. 13). Half-inch diameter discs of skin to which nylon washers had been cemented with cyanoacrylate were used. The available diffusional area of each skin disc enclosed by the nylon washer was 0.495 cm^2. The cell was assembled from parts of a commercial PVC coupling manufactured by Genova Products, Inc., Davison, Mich. The body of the coupling serves as the receptor chamber. The skin disc (5), kept flat by the nylon washer (6) cemented to its surface, is seated in the bottom end of the chamber, dermal side in contact with the receptor fluid (8). After test material is applied to the skin surface, an O-ring (4) and a flanged PVC washer (2) coated with aluminum foil (3) are positioned under the nylon washer on the skin, and a retaining nut (1) is carefully tightened under all. A small, teflon-covered magnetic stirring button (7) and the receptor fluid are introduced, after which the top end of the coupling is stoppered with another foil-coated flanged washer (9). After assembly, the cell is held in a rack on a magnetic stirrer, in a 32° C. incubator. The magnetic stirring button is used to stir the receptor fluid in the inverted cell, and this button spins in direct contact with the dermal side of the skin. […]

[4] = Intradermal penetration of progesterone by autoradiography
Source text: Therefore, an alternative procedure was used to acquire skin surface biopsies (Marks and Dawber, 1971, Brit. J. Dermatol. 85:117-123). Surface biopsies consist of a sheet of the top 2-3 layers of the stratum corneum, which retain vellus hairs on the underside, along with fragments of the pilosebaceous ducts known as "follicular casts" (Lavker and Leyden, 1979, "Lamellar Inclusions in Follicular Horny Cells: A New Aspect of Abnormal Keratinization," J. Ultrastruct. Res. 69: 362-370). These samples are produced by application of a drop of cyanoacrylate adhesive on a microscope slide to the surface of the skin, and after the adhesive sets, the slide with adhering tissue is carefully peeled off.
Discs of skin were prepared as described in "Methods", for measurement of intradermal penetration, but using much larger washers to provide test sites of about 10 cm2 in area. A test formula containing 20% progesterone (Sample Z) was applied, and uptake into the skin was allowed to proceed for one hour, and for 20 hours. Surface residue was removed at the indicated times, using the rinse/wipe procedure described. Skin surface biopsies were taken from 1 & 20-Hr skin discs, and coated with photographic emulsion (Illford K-2 emulsion, Illford, London), then allowed to develop for 14 days. Rinsing and fixing were done as prescribed by the manufacturer.

[5] = cited from earlier work
[6] = cited from earlier work; remark: listed apart in the source
[7] = oral, vaginal or rectal; cited from earlier work
[8] = combination of progesterone and estrogen; cited from earlier work
[9] = in vivo; cited from earlier work

| SMILES | efficacy in promoting the penetration of progesterone through the skin [1] | lag time, dialysis membrane [2] | rate of penetration through dialysis membrane ([2]; about 1.5 hours) | increase of rate after removal of the epidermis [3] | accumulation in follicles vs stratum corneum, autoradiography [4] | distribution of progesterone in the skin, autoradiography [4] | distribution depth within the follicle, autoradiography ([4]; 0.2 mm-long follicular fragment) | amount penetrated in a 24-hour period ([5]; 24 hours, thin film in vivo, Guy et al.) | penetration rate reported by Guy et al. ([5]; human skin in vivo) [μg/cm^2 /day] | rate of transdermal penetration in vitro ([6]; 2-pyrrolidone enhancer) | rate of transdermal penetration in vitro ([6]; N-methylformamide enhancer) | rate of transdermal penetration in vitro ([6]; no enhancer, acetone solution) [μg/cm^2 /hour] | half life in the body [7] | mean serum level giving an optimal effect in the treatment of menopause [8] [ng/mL] | amount of progesterone in the breast tissue [9] | increase in progesterone concentration in breast tissue [9] |
| --- | --- | --- | --- | --- | --- | --- | --- | --- | --- | --- | --- | --- | --- | --- | --- | --- |
| CCCCNC(N)=O [n-butylurea, butylurea] | clearly the most efficacious of the three |  |  |  |  |  |  |  |  |  |  |  |  |  |  |  |
| CC(=O)[C@H]1CC[C@H]2[C@@H]3CCC4=CC(=O)CC[C@]4(C)[C@H]3CC[C@]12C [progesterone, pregn-4-ene-3,20-dione] |  | no lag time | about 30 μg/cm^2 /Hr | about 2 fold | Accumulation in the follicles appeared to be faster than in the stratum corneum | preferential accumulation of progesterone in the pilosebaceous follicles | distributed uniformly to this depth within the lipid-rich interior of the follicle | about 1.2 μg/cm^2 | 1.2 | 11.4 (+/-4.6) μg/cm^2 /hour | 12.4 (+/-4.4) μg/cm^2 /hour | 0.477 | about 2.2 hours | 2 | high amounts | five-fold |
